This is an account of results in patent publication US10550140B2 (Achillion Pharmaceuticals, Inc., priority 2014, dated 2020).

Some results are limits rather than exact numbers.

The test addresses Human factor D (Homo sapiens (Human), UniProt P00746). Description: Human Factor D Assay. It is filed as biochemical. The method, then:
The assay of Example 8 was used to determine the IC50's of the compounds. Other standard factor D inhibition assays are also available.
Example 8. Human Factor D Assay
Human factor D (purified from human serum, Complement Technology, Inc.) at 80 nM final concentration is incubated with test compound at various concentrations for 5 minutes at room temperature in 50 mM Tris, 1M NaCl, pH 7.5. A synthetic substrate Z-L-Lys-SBzl and DTNB (Ellman's reagent) are added to final concentrations of 100 μM each. The increase in color is recorded at OD405 nm in a microplate in kinetic mode over 30 minutes with 30 second time points in a spectrofluorimeter. IC50 values are calculated by non-linear regression from the percentage of inhibition of complement factor D activity as a function of test compound concentration.

Chain of Human factor D (P00746 26-253): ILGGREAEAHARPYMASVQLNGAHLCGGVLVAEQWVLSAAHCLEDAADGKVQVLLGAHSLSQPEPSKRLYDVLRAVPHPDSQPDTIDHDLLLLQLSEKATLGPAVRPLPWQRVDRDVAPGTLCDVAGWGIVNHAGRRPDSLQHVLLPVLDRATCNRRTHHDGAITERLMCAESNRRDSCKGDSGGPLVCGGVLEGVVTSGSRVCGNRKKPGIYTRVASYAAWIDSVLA

By IC50 is commonly meant the midpoint of a concentration-inhibition curve. A lower IC50 goes with greater potency. For `CC(=O)c1cn(CC(=O)N2C[C@H](F)C[C@H]2C(=O)Nc2cccc(Br)c2)c2ccc(Oc3ncc(Br)cn3)cc12` [Compound 35], the IC50 was less than 1000 nM.
